Patent US11207325B2, “Triazolopyrimidine compounds and uses thereof” (Novartis AG, priority 2014, dated 2021)

What was measured:
[1] = system: H3K27 methylation in G401 cell; experiment: ELISA (H3K27 methylation) assay; type: cell-based; details: Homo sapiens, G-401; ELISA Qualified assay (H3K27 methylation); read-out: (c) IC50 (μM), ELISA Qualified
Description: ELISA (H3K27 Methylation) Assay

[2] = system: B cell lymphoma cell KARPAS422; experiment: Analysis of cell proliferation; type: cell-based; details: Homo sapiens, KARPAS-422, 336 h; B cell lymphoma cell KARPAS422 after 14 days of treatment; read-out: antiproliferative activities (IC50 values)
Protocol: Analysis of Cell Proliferation
B cell lymphoma cell KARPAS422 was cultured using standard cell culture conditions in RPMI-1640 (Invitrogen, cat #11875) supplemented with 15% FBS (Invitrogen, cat #10099-141) in humidified incubator at 37° C., 5% CO2. To assess the effect of PRC2 inhibition on cell proliferation, exponentially growing cells were seeded at a density of 1×10^5 cells/mL in 12-well plate (Corning, cat #CLS3513). After cell seeding, a compound of the present disclosure was added to the cell media (in concentrations ranging from 0 to 100 μM, 3× dilution series). Viable cell numbers were determined every 3-4 days for up to 14 days using Vi-CELL (Beckman Coulter). On days of cell counting, fresh growth media and compound were replenished and cells split back to a density of 1×10^5 cells/mL. Total cell number is expressed as split-adjusted viable cells per mL. The dose response curves and IC50 values were generated using Prism.

SMILES	IC50 [1] [µM]	IC50 [2] [nM]
OCc1ncccc1-c1cnc(NCc2c(F)ccc3c2CCO3)n2cnnc12 [Example 7, (3-(5-(((5-fluoro-2,3-dihydrobenzofuran-4-yl)methyl)amino)-[1,2,4]triazolo[4,3-c]pyrimidin-8-yl)pyridin-2-yl)methanol]	0.0052	3
Cc1ncc(-c2cnc(NCc3c(F)ccc4c3CCO4)n3cnnc23)c(C)n1 [Example 3, 8-(2,4-Dimethylpyrimidin-5-yl)-N-((5-fluoro-2,3-dihydrobenzofuran-4-yl)methyl)-[1,2,4]triazolo[4,3-c]pyrimidin-5-amine]	0.0034	0.7
Cc1nc(C2CC2)ncc1-c1cnc(NCc2c(F)ccc3c2CCO3)n2cnnc12 [Example 8, 8-(2-cyclopropyl-4-methylpyrimidin-5-yl)-N-((5-fluoro-2,3-dihydrobenzofuran-4-yl)methyl)-[1,2,4]triazolo[4,3-c]pyrimidin-5-amine]	0.0029	0.6
Cc1ncccc1-c1cnc(NCc2c(F)ccc3c2CCO3)n2cnnc12 [Example 2, N-((5-fluoro-2,3-dihydrobenzofuran-4-yl)methyl)-8-(2-methylpyridin-3-yl)-[1,2,4]triazolo[4,3-c]pyrimidin-5-amine]		3
Cc1nn(C(C)C)cc1-c1cnc(NCc2c(F)ccc3c2CCO3)n2cnnc12 [Example 4, N-((5-Fluoro-2,3-dihydrobenzofuran-4-yl)methyl)-8-(1-isopropyl-3-methyl-1H-pyrazol-4-yl)-[1,2,4]triazolo[4,3-c]pyrimidin-5-amine]	0.0021	0.3
Cc1nc(C2CC2)ccc1-c1cnc(NCc2c(F)ccc3c2CCO3)n2cnnc12 [Example 6, 8-(6-Cyclopropyl-2-methylpyridin-3-yl)-N-((5-fluoro-2,3-dihydrobenzofuran-4-yl)methyl)-[1,2,4]triazolo[4,3-c]pyrimidin-5-amine]	0.0038	0.2
Cc1cc(-c2cnc(NCc3c(F)ccc4c3CCO4)n3cnnc23)n(C)n1 [Example 1, 8-(1,3-dimethyl-1H-pyrazol-5-yl)-N-((5-fluoro-2,3-dihydrobenzofuran-4-yl)methyl)-[1,2,4]triazolo[4,3-c]pyrimidin-5-amine]	0.0009	0.4
COc1cc(C)c(-c2cnc(NCc3c(F)ccc4c3CCO4)n3cnnc23)cn1 [Example 5, N-((5-fluoro-2,3-dihydrobenzofuran-4-yl)methyl)-8-(6-methoxy-4-methylpyridin-3-yl)-[1,2,4]triazolo[4,3-c]pyrimidin-5-amine]	0.0029	0.8

Results, then the compound that gave them:

IC50 [1] [µM]	IC50 [2] [nM]	SMILES
0.0035	0.6	Cc1nc(OC(C)C)ncc1-c1cnc(NCc2c(F)ccc3c2CCO3)n2cnnc12 [Example 9, N-((5-fluoro-2,3-dihydrobenzofuran-4-yl)methyl)-8-(2-isopropoxy-4-methylpyrimidin-5-yl)-[1,2,4]triazolo[4,3-c]pyrimidin-5-amine]
0.0036	1	Cc1ncccc1-c1cnc(NCc2c(F)ccc3occc23)n2cnnc12 [Example 207, N-((5-fluorobenzofuran-4-yl)methyl)-8-(2-methylpyridin-3-yl)-[1,2,4]triazolo[4,3-c]pyrimidin-5-amine]
0.001	17.4	[O-][n+]1cccc(-c2cnc(NCc3c(F)ccc4c3CCO4)n3cnnc23)c1 [Example 10, 3-(5-(((5-fluoro-2,3-dihydrobenzofuran-4-yl)methyl)amino)-[1,2,4]triazolo[4,3-c]pyrimidin-8-yl)pyridine 1-oxide]
0.0072		Cc1cc(-c2cnc(NCc3c(F)ccc4c3CCO4)n3cnnc23)ccn1 [Example 116, N-((5-fluoro-2,3-dihydrobenzofuran-4-yl)methyl)-8-(2-methylpyridin-4-yl)-[1,2,4]triazolo[4,3-c]pyrimidin-5-amine]
